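1) Cells in 96-well plates. 2) Compound, 48 h, 5 concentrations. 3) Linear interpolation between surrounding doses. 4) Unreached endpoint = highest concentration. GI50 is the concentration that inhibits growth by half.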 Activity calls are given as the source filed them. Cut-off read from the data, not from the text of the source: active = GI50 up to about 1.1 µM and inactive = higher. A value given as a limit tells only on which side of the number the result lay.

Common to all, as to assay: NCI-60 cell line screen, 48 h
Experiment [1] deals with RXF 393.
Experiment [2] concerns SNB-75.
The subject of experiment [3] is OVCAR-5.
In experiment [4] the test system is SK-MEL-5.
Experiment [5] deals with SNB-19.
The test system of experiment [6] is A549.
Experiment [7] relates to NCI-H226.
The subject of experiment [8] is SF-268.
The subject of experiment [9] is SK-MEL-28.
Experiment [10] has as its system EKVX.
The test system of experiment [11] is SW-620.
Experiment [12] concerns IGROV-1.
The subject of experiment [13] is HCC 2998.
Experiment [14] concerns HOP-92.
The subject of experiment [15] is MOLT-4.
In experiment [16] the test system is A498.

Regarding `NC(=S)N/N=C(/CC(=O)c1ccc([N+](=O)[O-])cc1)C(=O)Nc1ncc([N+](=O)[O-])s1`, the GI50 in [1], in [2], in experiment [3], in experiment [4], in [5] and in experiment [6] was > 100 µM (inactive) in each case. For the same molecule, the GI50 in experiment [7], in experiment [8], in [9], in [10], in experiment [11] and in experiment [12] was > 100 µM (inactive) throughout. Moreover, the GI50 in [13] was > 100 µM (inactive); in experiment [14] it was > 100 µM (inactive); in [15], 30.7 µM (inactive).

Take `O=C(O)c1cc(=O)c2c([nH]c3ccccc32)s1`: the GI50 in experiment [1] was > 100 µM (inactive); in experiment [2], 56.8 µM (inactive); in experiment [3], > 100 µM (inactive); in experiment [4], > 100 µM (inactive); in experiment [5], > 100 µM (inactive); in experiment [6], > 100 µM (inactive). For the same molecule, the GI50 in [8], in experiment [9], in experiment [10], in [11], in experiment [12] and in experiment [13] was > 100 µM (inactive) throughout. The GI50 in [14] and in experiment [15] was > 100 µM (inactive) each time.

Turning to `N#Cc1ccc(C2OCC3CC=CCC3CO2)cc1` (stereo not drawn), the GI50 in experiment [1] is 54.3 µM (inactive); in [2], 64.9 µM (inactive); in experiment [3], 71.9 µM (inactive); in [4], 21.1 µM (inactive); in [5], > 100 µM (inactive); in [6], 70 µM (inactive). For the same molecule, the GI50 in [7] was > 100 µM (inactive); in experiment [8], > 100 µM (inactive); in experiment [9], 78.5 µM (inactive); in experiment [10], 31.2 µM (inactive); in experiment [11], > 100 µM (inactive); in [12], > 100 µM (inactive). For the same molecule, the values for the GI50 in experiment [13] and in experiment [15] were 59.4 µM (inactive) and 2.97 µM (inactive), respectively.

As to `CC1=CCC2(C#N)CCC1C2=O` (stereo not drawn), the GI50 in experiment [16], in experiment [3], in experiment [4], in experiment [5], in experiment [6] and in experiment [7] was > 100 µM (inactive) in each case. The GI50 in experiment [8], in [10], in [11], in experiment [12] and in [15] was > 100 µM (inactive) each time.

Regarding `COC(=O)CC(=O)NCC1=CCC(=O)CC1`, the GI50 in experiment [1], in [2], in experiment [16], in [4], in [5] and in experiment [6] was > 100 µM (inactive) in each case. Besides, the GI50 in experiment [8], in [9], in experiment [10], in experiment [11], in experiment [12] and in experiment [13] was > 100 µM (inactive) in each case. The GI50 in experiment [14] and in [15] was > 100 µM (inactive) throughout.

Turning to `CC(C)CN(CC(C)C)C(=O)C1CCCC[C@@H]1C(=O)O` (stereo partly drawn), the GI50 in experiment [2] is > 100 µM (inactive); in experiment [16], > 100 µM (inactive); in [3] it was > 10 µM (inactive); in [4], > 100 µM (inactive); in experiment [6], > 100 µM (inactive); in experiment [7], > 100 µM (inactive). The GI50 in experiment [8], in [9], in experiment [10], in [11], in experiment [12] and in experiment [13] was > 100 µM (inactive) each time. The GI50 in experiment [14] and in experiment [15] was > 100 µM (inactive) throughout.

With `O=C(COc1ccc(Cl)cc1)N1N=C(c2ccc(Cl)cc2)CC1(O)c1ccccc1` (stereo not drawn), the GI50 in experiment [2] was 29.9 µM (inactive); in experiment [16], 13.5 µM (inactive); in experiment [3] it was 21.7 µM (inactive); in experiment [4] it was 14.5 µM (inactive); in [5], 20.3 µM (inactive); in experiment [6] it was 14.3 µM (inactive). Moreover, the GI50 in experiment [7] is 22.3 µM (inactive); in [8], > 43.9 µM (inactive); in experiment [9], 18.2 µM (inactive); in [10], 30 µM (inactive); in [11], 21.2 µM (inactive); in [12], 18.5 µM (inactive). Moreover, the GI50 was > 37.2 µM (inactive) in experiment [13], 21.5 µM (inactive) in experiment [14] and 4.95 µM (inactive) in [15].

Regarding `O=C1C2=C(c3ccccc31)C(c1cccc(Cl)c1)NC(S)=N2` (stereo not drawn), the GI50 was 31.9 µM (inactive) in [2]; > 100 µM (inactive) in experiment [16]; > 100 µM (inactive) in experiment [3]; 55.1 µM (inactive) in [4]; > 100 µM (inactive) in [5]; > 100 µM (inactive) in experiment [6]. Besides, the GI50 was 44.2 µM (inactive) in experiment [7]; > 100 µM (inactive) in [8]; > 100 µM (inactive) in [9]; > 100 µM (inactive) in [10]; > 100 µM (inactive) in experiment [11]; > 100 µM (inactive) in experiment [12]. In addition, the GI50 in experiment [13] was > 100 µM (inactive); in experiment [14], > 100 µM (inactive); in [15], 91.8 µM (inactive).

With `CC1=C2C(=O)C3[C@@H](CCC4=CC(=O)CC[C@@]43C)C2CC[C@]12O[C@@H]1C[C@H](C)CN[C@H]1[C@H]2C` (stereo partly drawn), the GI50 is 38.5 µM (inactive) in [1]; 72.8 µM (inactive) in experiment [2]; 32.3 µM (inactive) in experiment [16]; 42.1 µM (inactive) in experiment [4]; 44.4 µM (inactive) in experiment [5]; 28 µM (inactive) in experiment [6]. Besides, the GI50 in [7] was 70.5 µM (inactive); in [8], 31.6 µM (inactive); in [9], 97.1 µM (inactive); in [10] it was 49 µM (inactive); in experiment [11], 57.9 µM (inactive); in experiment [12], > 100 µM (inactive). The GI50 in experiment [13] was > 100 µM (inactive); in experiment [14] it was 48.2 µM (inactive); in experiment [15], 19.9 µM (inactive).

As to `C[P+](C)(C)C`, the GI50 in [1], in experiment [2], in experiment [3], in experiment [4], in experiment [5] and in [6] was > 100 µM (inactive) throughout. The GI50 in experiment [7], in [8], in experiment [9], in experiment [10], in [11] and in experiment [12] was > 100 µM (inactive) throughout. Moreover, the GI50 in experiment [13], in experiment [14] and in experiment [15] was > 100 µM (inactive) throughout.

As to `CC1=C[C@H]2C[C@@]3(C)O[C@@H]([C@]4(C)CC[C@H]([C@@H](C)C(=O)O)OO4)CC3C(C)(C)[C@H]2CC1` (stereo partly drawn), the GI50 is 1.25 µM (inactive) in experiment [1]; 1.08 µM (active) in experiment [2]; 3.16 µM (inactive) in experiment [3]; 1.79 µM (inactive) in [5]; 1.88 µM (inactive) in experiment [6]; 2.01 µM (inactive) in [7]. In addition, the GI50 is 2.17 µM (inactive) in experiment [8]; 1.56 µM (inactive) in experiment [9]; 1.87 µM (inactive) in [10]; 0.259 µM (active) in experiment [11]; 1.04 µM (active) in experiment [13]; 0.078 µM (active) in [14].

As for `COc1cc2c3c(c1OC)-c1c(ccc4c1OCO4)CC3(C#N)N(C(=O)c1ccccc1)CC2` (stereo not drawn), the GI50 in experiment [1] was 36.1 µM (inactive); in experiment [2] it was 21.2 µM (inactive); in [16], > 100 µM (inactive); in experiment [3] it was > 100 µM (inactive); in experiment [4], > 100 µM (inactive); in experiment [5], 61.5 µM (inactive). The GI50 in [6] is 64.3 µM (inactive); in experiment [7] it was 37.7 µM (inactive); in [8], 43.2 µM (inactive); in experiment [10], 74.1 µM (inactive); in experiment [11], > 100 µM (inactive); in experiment [12], > 100 µM (inactive). In addition, the GI50 in [14] was 26.4 µM (inactive); in experiment [15], > 100 µM (inactive).

As to `CCCCCCCCCCCCCC(=O)OCC1OC(=O)C(O)C1O` (stereo not drawn), the GI50 in [2], in experiment [16], in experiment [3], in experiment [4], in experiment [5] and in [6] was > 100 µM (inactive) throughout. For the same molecule, the GI50 in [7], in experiment [8], in experiment [9], in experiment [10], in [11] and in experiment [12] was > 100 µM (inactive) each time. In addition, the GI50 in [13], in experiment [14] and in experiment [15] was > 100 µM (inactive) throughout.

In the case of `O=C1C=CC(=O)N1Nc1ccc([N+](=O)[O-])cc1[N+](=O)[O-]`, the GI50 in [2] is > 100 µM (inactive); in [16] it was 62.1 µM (inactive); in experiment [3], > 100 µM (inactive); in experiment [4] it was > 100 µM (inactive); in experiment [5], > 100 µM (inactive); in experiment [6], > 100 µM (inactive). The GI50 in experiment [7] was 97.1 µM (inactive); in [8], > 100 µM (inactive); in experiment [9], > 43.4 µM (inactive); in experiment [10], > 100 µM (inactive); in [11] it was > 67.3 µM (inactive); in experiment [12] it was > 100 µM (inactive). For the same molecule, the GI50 in experiment [13] is > 100 µM (inactive); in [14], > 49.1 µM (inactive); in [15], 33.3 µM (inactive).

Source of the values: ChEMBL document CHEMBL1201862, “PubChem BioAssay data set” (2004).
